This passage reports Km results from publication PMC5299038 (Structure (London, England : 1993), 2017).

Broadly, the Km is the concentration of substrate that gives half-maximal velocity.

Assay [1] relates to TpCADE. As to conditions: hydrolysis of the alpha-1,3-linkages.
The target in assay [2] is TpCADE (Trueperella pyogenes, UniProt Z9JAQ5MWQ7). The experiment in a line: coupled glucose oxidase assay. The assay is classed as biochemical. As to conditions: hydrolysis of the alpha-1,3-linkages.

Regarding cycloalternan, the values for the Km in assay [1] and in assay [2] were 9.3 ± 1.5 mM and 2.1 ± 0.2 mM, respectively.
